Measurements: PMC6149664, “Synthesis and In Vitro Antimycobacterial Activity of Novel N-Arylpiperazines Containing an Ethane-1,2-diyl Connecting Chain” (Molecules : A Journal of Synthetic Chemistry and Natural …, 2017)
In brackets after ≈: the same amount, converted by molar mass. Read-outs that look alike come from different tables or passages of the source.

Key:
M. kansasii CIT11/06 = assay: In vitro antimycobacterial MIC (IC90), alamarBlue 96-well assay in Middlebrook broth; format: cell-based, Mycobacterium kansasii; settings: 7 days incubation, read-out: MIC, MK CIT11/06
[1] = test system: M. tuberculosis CNCTC My 331/88 (identical with H37Rv and ATCC 2794); assay: In vitro antimycobacterial MIC, dilution-micromethod in Šula semisynthetic medium; format: cell-based; settings: Mycobacterium tuberculosis
[2] = test system: M. kansasii 6 509/96 clinical isolate; assay: as above; format: cell-based; settings: Mycobacterium kansasii, read-out: MIC, MK 6 509/96
[3] = test system: M. kansasii CNCTC My 235/80 (identical with ATCC 12478); assay: as above; format: cell-based, Mycobacterium kansasii
[4] = test system: M. avium CNCTC My 330/80 (identical with ATCC 25291); assay: as above; format: cell-based; settings: Mycobacterium avium
[5] = test system: M. avium intracellulare ATCC 13950; assay: In vitro antimycobacterial MIC (IC90), alamarBlue 96-well assay in Middlebrook broth; format: cell-based, Mycobacterium avium intracellulare; settings: Mycobacterium avium, ATCC13950, 168 h, 7 days incubation, read-out: MIC, MAI ATCC 13950
[6] = test system: M. avium hominissuis CIT10/08; assay: as above; format: cell-based, Mycobacterium avium hominissuis; settings: Mycobacterium avium, 168 h, 7 days incubation, read-out: MIC, MAH CIT10/08
[7] = test system: M. avium subsp. paratuberculosis CIT03; assay: microbe, parasite or virus in culture; format: cell-based; settings: Mycobacterium avium, 168 h, read-out: MIC, MAP CIT03
[8] = Mycobacterium kansasii, CIT11/06, 168 h
[9] = 336 h, 14 d cultivation, read-out: MIC, MT My 331/88
[10] = 504 h, 21 d cultivation, read-out: MIC, MT My 331/88
[11] = Mycobacterium kansasii, ATCC12478, 168 h, 7 d cultivation, read-out: MIC, MK My 235/80
[12] = Mycobacterium kansasii, ATCC12478, 336 h, 14 d cultivation, read-out: MIC, MK My 235/80
[13] = Mycobacterium kansasii, ATCC12478, 336 h, both M. kansasii strains, depending on strain and number of days of incubation (standards: 14-d/21-d), read-out: MIC against M. kansasii My 235/80 and M. kansasii 6 509/96
[14] = Mycobacterium kansasii, ATCC12478, 504 h, 21 d cultivation, read-out: MIC, MK My 235/80
[15] = both M. kansasii strains, depending on strain and number of days of incubation (standards: 14-d/21-d), read-out: MIC against M. kansasii My 235/80 and M. kansasii 6 509/96
[16] = ATCC25291, 336 h, 14 d cultivation, read-out: MIC, MA My 330/88
[17] = ATCC25291, 504 h, 21 d cultivation, read-out: MIC, MA My 330/88

Row | SMILES | MIC (M. kansasii CIT11/06) [µM] | MIC (M. kansasii CIT11/06; [8]) [µM] | MIC [1, 9] [µM] | MIC [1, 10] [µM] | MIC ([2]; 168 h, 7 d cultivation) [µM] | MIC ([2]; 336 h, 14 d cultivation) [µM] | MIC ([2]; 504 h, 21 d cultivation) [µM] | MIC [3, 11] [µM] | MIC [3, 12] [µM] | MIC [3, 13] [µM] | MIC [3, 14] [µM] | MIC [3, 15] [µM] | MIC ([4]; ATCC25291, 336 h, 14-d/21-d, read-out: MIC against M. avium CNCTC My 330/80) [µM] | MIC [4, 16] [µM] | MIC [4, 17] [µM] | MIC ([1]; 336 h, 14-d/21-d cultivation, read-out: MIC against M. tuberculosis CNCTC My 331/88) [µM] | MIC [5] [µM] | MIC [6] [µM] | MIC [7] [µM]
1 | O=C(O)c1cn(C2CC2)c2cc(N3CCNCC3)c(F)cc2c1=O [CPX, ciprofloxacin, reference compound] | >91 | > 91 |  |  |  |  |  |  |  |  |  |  |  |  |  |  |  |  | 
2 | CC[C@@H](CO)NCCN[C@@H](CC)CO [EMB, ethambutol, reference compound] |  |  | 1 (≈ 0.204 µg/mL) | 2 (≈ 0.409 µg/mL) | 1 (≈ 0.204 µg/mL) | 2 (≈ 0.409 µg/mL) | 2 (≈ 0.409 µg/mL) | 1 (≈ 0.204 µg/mL) | 2 (≈ 0.409 µg/mL) | 1 (≈ 0.204 µg/mL) | 2 (≈ 0.409 µg/mL) | 2 (≈ 0.409 µg/mL) | 16 (≈ 3.27 µg/mL) | 16 (≈ 3.27 µg/mL) | 16 (≈ 3.27 µg/mL) |  |  |  | 
3 | NNC(=O)c1ccncc1 [INH, isonicotinic acid hydrazide, reference compound] |  | > 1820 | 0.5 (≈ 0.0686 µg/mL) | 0.5 (≈ 0.0686 µg/mL) | 4 (≈ 0.549 µg/mL) | 8 (≈ 1.1 µg/mL) | 8 (≈ 1.1 µg/mL) | > 250 | > 250 |  | > 250 |  |  | > 250 | > 250 | 0.5 (≈ 0.0686 µg/mL) | > 1820 | > 1820 | > 1820
4 | CC1COc2c(N3CCN(C)CC3)c(F)cc3c(=O)c(C(=O)O)cn1c23 (stereo not shown) [OFLX, ofloxacin, reference compound] |  |  | 1 (≈ 0.361 µg/mL) | 2 (≈ 0.723 µg/mL) | 0.5 (≈ 0.181 µg/mL) | 0.5 (≈ 0.181 µg/mL) | 1 (≈ 0.361 µg/mL) | 0.5 (≈ 0.181 µg/mL) | 1 (≈ 0.361 µg/mL) | 0.5 (≈ 0.181 µg/mL) | 1 (≈ 0.361 µg/mL) | 1 (≈ 0.361 µg/mL) |  | 32 (≈ 11.6 µg/mL) | 62.5 (≈ 22.6 µg/mL) |  |  |  | 
5 | NC(=O)c1cnccn1 [PZA, pyrazinamide, reference compound] |  | > 2030 |  |  |  |  |  |  |  |  |  |  |  |  |  |  | > 2030 | 487 (≈ 60 µg/mL) | > 2030
